Experimental data reported in patent US7595173B2, “Low-cost production of peptides” (Dow Global Technologies Inc., priority 2002, dated 2009).
“Also recorded” adds a separate entry of the source. Ends that are not written are not given here.

Tested on: E. coli strain BL21 (DE3)
Assay: Antimicrobial activity: dose-dependent inhibition of E. coli growth (standard growth inhibition assay)
Type: cell-based
Description: The antimicrobial activity of the cleaved peptides (same samples from Examples 5 and 6) was determined by measuring the dose-dependent inhibition of E. coli growth. The samples were tested for their ability to inhibit the growth of an overnight culture inoculated with E. coli strain BL21 (DE3). AMP samples were diluted serially into water in 96 well plates. Overnight cultures of E. coli BL21 (DE3) cells were diluted 1:50 into LB broth and 250 μl aliquots were transferred into 96-well plates. Each plate was incubated at 37° C. for one hour and then 50 μl of diluted peptide (or water) were added to each well. Each plate was incubated overnight at 37° C. and then the culture density was determined by measuring the apparent absorbance at 600 nm using a Spectromax Plus plate reader.

For “PFAKKFAKKFKKFAKKFAKFAFAFGD [D2A21 with an additional proline on the N-terminus and a glycine-aspartate dipeptide on its C-terminus]”, the “antimicrobial activity as compared to the D2A21 core/parent peptide” value was “equivalent antimicrobial activity; also recorded: did not adversely affect the activity”.
